Patent publication US20140193341A1, “HUMAN INDUCED NEURONAL CELLS” (priority 2011, published 2014)
Entries after “also recorded” stand apart in the source; their conditions may differ.

What was measured:
Assay type in all cases: cell-based, human
[1] = tested on: AMPA and NMDA glutamatergic receptors; experiment: Glutamate puff evoked postsynaptic currents in hiN cells; settings: glutamate 1 mM puff, NBQX 20 μM and APV 50 μM applied together
glutamatergic receptor = experiment: Spontaneous postsynaptic currents of hiN cells in murine glial coculture; settings: hiN cells held at −70 mV, murine glial monolayer coculture; NBQX/APV bath application
[2] = tested on: hiN cells integrated into host brain; experiment: Voltage-clamp recording of transplanted hiN cells in acutely prepared mouse brain slices; settings: for spontaneous excitatory postsynaptic currents (sEPSCs) under glutamatergic block: NBQX 20 μM and APV 50 μM
γ-secretase = experiment: Aβ ELISA of media from hiN cultures treated with γ-secretase inhibitor; settings: DAPT 10 μM; hiN cell cultures
Experimental: APP ELISA was performed using a human APP ELISA kit (Invitrogen, Camarillo, Calif.), according to the manufacturer's instruction. Absorbance was read on a VersaMax ELISA Microplate Reader (Molecular Devices, Inc. Sunnyvale, Calif.) at 450 nm. The amount of APP was normalized to the total cell protein (determined with the DC Protein Assay Reagent kit; Bio-Rad, Hercules, Calif.). sAPPIβ and Aβ ELISA were performed on supernatant media from hiN cell cultures at 21 days after viral transduction. […] was performed using BetaMarkTM sAPP Beta ELISA kit (Covance, Princeton, N.J.), according to the manufacturer's instruction. The chemiluminescence was read on a microplate luminometer ([…] Plus, TECAN, Männedorf Switzerland). Aβ quantification was performed by ELISA as described previously (Cirrito et al., 2003). Media was conditioned for 48 hr prior to harvesting. Samples were analyzed for Aβ40 or Aβ42 using specific sandwich ELISAs. Briefly, Aβ40, and Aβ42 were captured using monoclonal antibodies targeted against amino acids 35-40 (HJ2.0), or 33-42 (HJ7.4) of Aβ, respectively. The antibodies HJ2.0, HJ5.1 and HJ7.4 were gifts from David M. Holtzman. […] All assays were developed using Super Slow ELISA TMB (Sigma) and read on a VersaMax ELISA Microplate Reader (Molecular Devices, Inc. Sunnyvale, Calif.) at 650 nm. […]

[3] = tested on: APP-positive puncta in hiN cells; experiment: APP immunostaining of hiN cells, APP-positive puncta area per cell; settings: DAPT 10 μM, 18 hr
Experimental: Cells were fixed in 4% paraformaldehyde for 10 min at room temperature, followed by rinsing 3 times with phosphate-buffered saline (PBS). Cells were then permeabilized with 0.1% Triton X-100 in 1×PBS for 10 min at room temperature. After again rinsing 3 times with PBS, cells were incubated with blocking buffer containing 10% goat serum and 10 mg/ml BSA at room temperature for 1 hr. All primary antibodies were diluted in PBS. Cells were incubated with primary antibodies as listed at 4° C. for 12-16 hr, followed by the corresponding secondary antibody solutions in 37° C. for 1 hr. Cells were rinsed with 1×PBS three times followed by mounting of coverslips with anti-fade solution (Invitrogen). […]
Imaging was performed by laser-scanning confocal microscopy with a 63×/1.4 objective (LSM510, Can Zeiss) or by epifluorescence microscope (Olympus 1×71; Japan). hiN cell counts and fluorescence intensities were quantified by taking 10 to 35 images of randomly selected views per well. Subsequently, images were analyzed for cell counts and fluorescent intensity using Image J 1.42q software (National Institute of Health, USA). […]

secreted Aβ40 and Aβ42 = experiment: Aβ40/Aβ42 sandwich ELISA of hiN cell culture media with ibuprofen treatment; settings: ibuprofen 250 μM
Experimental: sAPPβ ELISA was performed using BetaMar sAPP Beta ELISA, according to the manufacturer's instruction. Aβ quantification was performed by ELISAs (Cirrito et al., 2003). Media was conditioned for 48 hr prior to harvesting. Samples were analyzed for Aβ40 or Aβ42 using specific sandwich ELISAs. Briefly, Aβ40, and Aβ42 were captured using monoclonal antibodies targeted against amino acids 35-40 (HJ2.0), or 33-42 (HJ7.4) of Aβ, respectively. The antibodies HJ2.0, HJ5.1 and HJ7.4 were used. For Aβ40 and Aβ42 assays, a biotinylated central domain monoclonal antibody (HJ5.1) followed by streptavidin-poly-HRP-40 was used for detection. Assays were developed using Super Slow ELISA TMB and read on a VersaMax ELISA Microplate Reader. Aβ40, and Aβ42 standard curves were generated using purified peptides. The amount of Aβ was normalized to the cell density per well (relative to UND line as indicated in legend), and was expressed as pg/ml.

sodium channel = tested on: sodium channel
Na+ channel = tested on: Na+ channel
GABA receptors = experiment: GABA puff evoked currents in hiN cells; settings: GABA 1 mM puff, picrotoxin 50 μM

## N[C@H](CCCP(=O)(O)O)C(=O)O [APV, D(−)-2-amino-5-phosphonovaleric acid]
[1]
  glutamate-mediated postsynaptic currents: could be blocked; also recorded: sensitive
Glutamatergic receptor
  spontaneous postsynaptic currents in glial coculture: sensitive; also recorded: abolished
[2]
  spontaneous excitatory postsynaptic currents (sEPSCs) under glutamatergic block: suppressed; also recorded: drastically reduced

## C[C@H](NC(=O)Cc1cc(F)cc(F)c1)C(=O)N[C@H](C(=O)OC(C)(C)C)c1ccccc1 [DAPT]
γ-secretase
  production of Aβ in media: suppressed
[3]
  total APP-positive puncta area per cell, UND hiN cells: partially phenocopied; also recorded: significant increase

## NS(=O)(=O)c1cccc2c1c([N+](=O)[O-])cc1nc(O)c(O)nc12 [NBQX, 2,3-dihydroxy-6-nitro-7 sulphamoyl-benzo[f]quinoxaline-2,3-dione]
[1]
  glutamate-mediated postsynaptic currents: could be blocked; also recorded: sensitive
Glutamatergic receptor
  spontaneous postsynaptic currents in glial coculture: sensitive; also recorded: abolished
[2]
  spontaneous excitatory postsynaptic currents (sEPSCs) under glutamatergic block: suppressed; also recorded: drastically reduced

## CC(C)Cc1ccc(C(C)C(=O)O)cc1 (centres unmarked) [ibuprofen]
Secreted Aβ40 and Aβ42; FAD (Presenilin mutant) hiN cell cultures
  increased Aβ40 and Aβ42 generation in FAD hiN cell cultures: failed to suppress; also recorded: resistant
Secreted Aβ40 and Aβ42; SAD hiN cell cultures
  elevated levels of secreted Aβ40 and Aβ42 in SAD hiN cell cultures: suppressed

## NC1=N[C@H](O)[C@H]2[C@H]3O[C@]4(O)O[C@@H]([C@@H](O)[C@@]2(N1)[C@@H]4O)[C@]3(O)CO [tetrodotoxin]
Sodium channel
  depolarization-induced action potentials: could be inhibited; also recorded: could be blocked
Na+ channel
  fast inward Na+ currents: sensitive

## picrotoxin
GABA receptors
  GABA evoked currents: sensitive
[2]; picrotoxin 50 μM
  frequency and amplitude of spontaneous excitatory postsynaptic currents (sEPSCs): increased in frequency and amplitude
